We go through three molecules from paper PMC10529594, “Strasseriolides display in vitro and in vivo activity against trypanosomal parasites and cause morphological and size defects in Trypanosoma cruzi” (PLOS Neglected Tropical Diseases, 2023).

Several values for one entry are separate records, joined by “and”; a condition that tells them apart may be missing. Equal values may be shown once. Read-outs that look alike come from different tables or passages of the source.

Data set [1] deals with T. cruzi epimastigotes. Briefly: Microscopy analysis of T. cruzi epimastigotes (DAPI cell cycle, DIC morphology). As to conditions: for % Cells 0N1K, Average / % Cells 1N1K1F, Average / % Cells 1N*1K*1F, Average / % Cells 1N*2K2F, Average / % Cells 2N1K, Average / % Cells 2N2K2F, Average / % Cells Other, Average / % Cells 0N1K, individual replicates / % Cells 1N1K1F, individual replicates / % Cells 1N*1K*1F, individual replicates / % Cells 1N*2K2F, individual replicates / % Cells 2N1K, individual replicates / % Cells 2N2K2F, individual replicates / % Cells Other, individual replicates: 72-hour drug exposure, DAPI staining. In kind it is cell-based, Trypanosoma cruzi. As for the experimental part:
For morphological phenotypic analysis and further confirmation of cell cycle analysis by FACS, T. cruzi epimastigotes were grown for 72 hours in a 6-well plate in the presence and absence of drugs. Briefly, 1 × 10^6 parasites of each condition were harvested and fixed in 4% p-formaldehyde at 4°C for 20 minutes, washed twice with cold PBS, and placed on poly-L-lysine-coated slides. Followed by dehydration in methanol, parasite samples were stained and mounted with DAPI Prolong. Digital images were acquired with a Leica DMi8 microscope in Tile Scan mode with […] excitation to quantify DAPI stained nuclei and kinetoplasts of the parasite population. Transmitted light microscopy was used to acquire differential interference contrast (DIC) images (> 80 individual cells in each of two independent experiments).

The test system of data set [2] is T. cruzi epimastigotes. Briefly: Quantification of ATP intracellular levels (CellTiter-Glo). As to conditions: for ATP content, individual replicates: single replicates. In kind it is cell-based, Trypanosoma cruzi. On the procedure: ATP was determined using the CellTiter-Glo assay. Optimum readout conditions and linearity of the assay were established for T. cruzi epimastigotes by testing different cell densities. The assay was linear up to 100,000 cells (in 90 μl) per well. 50,000 cells (from log phase cultures) per well were dispensed into 96-well white flat bottom microplates containing 10 μl of strasseriolide C at concentrations ranging from 0.4 to 6.25 μM and grown at 28°C for 72 hours with orbital shaking. ATP standard curves were obtained using concentrations ranging from 0.1 to 100 pmol of ATP disodium salt in 90 μl of LIT medium per well. Both samples and standards were assayed in triplicate. 70 μL of CellTiter-Glo solution were added to treated and control parasites and to the standard curve wells, and luminescence detection was recorded after 15 minutes incubation in a Tecan Infinite 200 microplate reader.
To determine if ATP production was affected by these compounds, we measured intracellular levels in T. cruzi epimastigotes. After 72-hour treatment with strasseriolide C at doses ranging from 0.4 to 6.25 μM, 70 μl of Cell-Titer Glo reagent were added with a multichannel pipette. Plates were incubated at 28°C for 10 minutes, after which luminescence was recorded. Luminescence relative light unit (RLU) values were interpolated in the ATP calibration curve (S4A Fig) and pmol of ATP per well were quantified. Considering proliferation inhibition due to strasseriolide C activity, values were normalized with respect to the number of parasites as determined by counting in a Neubauer chamber using phase contrast microscopy.

Details of data set [3]: method as in PMID 34865639. As to conditions: murine model, cited from earlier work.

As for `C/C1=C\[C@H](C)C(=O)C[C@@H](O)/C(C)=C/[C@H](C)C[C@@H](C)CC[C@@H]([C@@H](C)C(=O)O)OC(=O)[C@@H](C)C1` [Strasseriolide C, strasseriolide C], in the data set on T. cruzi epimastigotes [1] (EC30, average), the “% Cells 0N1K, Average” value is reported as 0.9709%; the “% Cells 1N1K1F, Average” value is 66.0194%; the “% Cells 1N*1K*1F, Average” value is 4.854%; the “% Cells 1N*2K2F, Average” value amounted to 2.913%. For the same molecule, in the data set on T. cruzi epimastigotes [1] (EC30, average), the “% Cells 2N1K, Average” value worked out at 4.854%; the “% Cells 2N2K2F, Average” value was 19.4175%; the “% Cells Other, Average” value is on record as 0.9709%. For the same molecule, in the data set on T. cruzi epimastigotes [1] (EC30, single replicates), the “% Cells 0N1K, individual replicates” value is 0.9709%; the “% Cells 1N1K1F, individual replicates” value was 70.8738% and 61.165%; the “% Cells 1N*1K*1F, individual replicates” value is on record as 4.854%; the “% Cells 1N*2K2F, individual replicates” value stood at 2.913%. For the same molecule, in the data set with T. cruzi epimastigotes [1] (EC30, single replicates), the “% Cells 2N1K, individual replicates” value is 6.796% and 2.913%; the “% Cells 2N2K2F, individual replicates” value is 13.5922% and 25.2427%; the “% Cells Other, individual replicates” value is 0% and 1.942%. In the data set with T. cruzi epimastigotes [1] (EC70, average), the “% Cells 0N1K, Average” value is 3.4269%; the “% Cells 1N1K1F, Average” value is 57.8968%; the “% Cells 1N*1K*1F, Average” value is 5.388%; the “% Cells 1N*2K2F, Average” value was determined as 3.4269%. Besides, in the data set on T. cruzi epimastigotes [1] (EC70, average), the “% Cells 2N1K, Average” value is 2.951%; the “% Cells 2N2K2F, Average” value is listed as 24.9207%; the “% Cells Other, Average” value is 2.961%. Besides, in the data set with T. cruzi epimastigotes [1] (EC70, single replicates), the “% Cells 0N1K, individual replicates” value was 2.9703% and 3.8835%; the “% Cells 1N1K1F, individual replicates” value was 63.3663% and 52.4272%; the “% Cells 1N*1K*1F, individual replicates” value was 4.9505% and 5.825%; the “% Cells 1N*2K2F, individual replicates” value was 2.9703% and 3.8835%. Besides, in the data set with T. cruzi epimastigotes [1] (EC70, single replicates), the “% Cells 2N1K, individual replicates” value was 3.9604% and 1.942%; the “% Cells 2N2K2F, individual replicates” value is 16.8317% and 33.0097%; the “% Cells Other, individual replicates” value was 4.9505% and 0.9709%. The “morphological changes (DIC microscopy)” value in the data set with T. cruzi epimastigotes [1] (72 h, at EC70) was “smaller and rounded parasites”. Moreover, in the data set on T. cruzi epimastigotes [2] (0.390625 µM), the “ATP content, Average (pmol ATP/cell)” value was determined as 1.759e-5 pmol ATP/cell; the “ATP content, individual replicates” value is 1.792e-5 pmol ATP/cell and 1.833e-5 pmol ATP/cell and 1.6509e-5 pmol ATP/cell. Moreover, in the data set with T. cruzi epimastigotes [2] (0.78125 µM), the “ATP content, Average (pmol ATP/cell)” value was found to be 1.732e-5 pmol ATP/cell; the “ATP content, individual replicates” value was 1.756e-5 pmol ATP/cell and 1.79e-5 pmol ATP/cell and 1.649e-5 pmol ATP/cell. Besides, in the data set on T. cruzi epimastigotes [2] (1.5625 µM), the “ATP content, Average (pmol ATP/cell)” value is recorded as 1.679e-5 pmol ATP/cell; the “ATP content, individual replicates” value is 1.677e-5 pmol ATP/cell and 1.743e-5 pmol ATP/cell and 1.6178e-5 pmol ATP/cell. In the data set with T. cruzi epimastigotes [2] (3.125 µM), the “ATP content, Average (pmol ATP/cell)” value came out at 1.67e-5 pmol ATP/cell; the “ATP content, individual replicates” value is 1.693e-5 pmol ATP/cell and 1.736e-5 pmol ATP/cell and 1.58e-5 pmol ATP/cell. Also, in the data set on T. cruzi epimastigotes [2] (6.25 µM), the “ATP content, Average (pmol ATP/cell)” value is 1.53e-5 pmol ATP/cell; the “ATP content, individual replicates” value is 1.501e-5 pmol ATP/cell and 1.61e-5 pmol ATP/cell and 1.48e-5 pmol ATP/cell. The “cellular ATP pool” value with T. cruzi epimastigotes [2] (epimastigotes, 72 h, 0.4 to 6.25 μM, normalized to parasite number) was “discrete reduction”.
With `C/C1=C\[C@H](C)CC[C@@H](O)/C(C)=C/[C@H](C)C[C@@H](C)CC[C@@H]([C@@H](C)C(=O)O)OC(=O)[C@@H](C)C1` [Strasseriolide B, strasseriolide B], the figures for the toxicity in vivo result in data set [3] (listed as B) and in data set [3] (listed as strasseriolide B) were “toxic in vivo” and “toxic”, respectively.
Take `C/C1=C\[C@H](C)[C@@H](O)C[C@@H](O)/C(C)=C/[C@H](C)C[C@@H](C)CC[C@@H]([C@@H](C)C(=O)O)OC(=O)[C@@H](C)C1` [Strasseriolide D, strasseriolide D]: in the data set with T. cruzi epimastigotes [1] (EC30, average), the “% Cells 0N1K, Average” value is 1.2%; the “% Cells 1N1K1F, Average” value worked out at 57.325%; the “% Cells 1N*1K*1F, Average” value stood at 6.55%; the “% Cells 1N*2K2F, Average” value was determined as 2.85%. Moreover, in the data set on T. cruzi epimastigotes [1] (EC30, average), the “% Cells 2N1K, Average” value is recorded as 4.5%; the “% Cells 2N2K2F, Average” value came out at 26.325%; the “% Cells Other, Average” value is 1.25%. Moreover, in the data set with T. cruzi epimastigotes [1] (EC30, single replicates), the “% Cells 0N1K, individual replicates” value was 0% and 2.4%; the “% Cells 1N1K1F, individual replicates” value is 56.25% and 58.4%; the “% Cells 1N*1K*1F, individual replicates” value is 7.5% and 5.6%; the “% Cells 1N*2K2F, individual replicates” value was 2.5% and 3.2%. In the data set on T. cruzi epimastigotes [1] (EC30, single replicates), the “% Cells 2N1K, individual replicates” value was 5% and 4%; the “% Cells 2N2K2F, individual replicates” value is 26.25% and 26.4%; the “% Cells Other, individual replicates” value was 2.5% and 0%. Moreover, in the data set on T. cruzi epimastigotes [1] (EC70, average), the “% Cells 0N1K, Average” value is listed as 0.4587%; the “% Cells 1N1K1F, Average” value is 62.2955%; the “% Cells 1N*1K*1F, Average” value is listed as 3.438%; the “% Cells 1N*2K2F, Average” value came out at 5.902%. In the data set on T. cruzi epimastigotes [1] (EC70, average), the “% Cells 2N1K, Average” value stood at 3.953%; the “% Cells 2N2K2F, Average” value is on record as 19.5971%; the “% Cells Other, Average” value turned out to be 4.355%. Also, in the data set on T. cruzi epimastigotes [1] (EC70, single replicates), the “% Cells 0N1K, individual replicates” value is 0% and 0.9174%; the “% Cells 1N1K1F, individual replicates” value is 56.701% and 67.8899%; the “% Cells 1N*1K*1F, individual replicates” value was 4.124% and 2.752%; the “% Cells 1N*2K2F, individual replicates” value was 7.216% and 4.587%. For the same molecule, in the data set with T. cruzi epimastigotes [1] (EC70, single replicates), the “% Cells 2N1K, individual replicates” value was 5.155% and 2.752%; the “% Cells 2N2K2F, individual replicates” value was 22.6804% and 16.5138%; the “% Cells Other, individual replicates” value is 4.124% and 4.587%.
